Values joined by “and” are separate entries in the source; they are usually repeats but may differ in a detail not shown here. Identical values can stand only once.
Legend:
hPARP1 = hPARP1 (Homo sapiens, UniProt P09874); test: In vitro PARP1 auto-PARylation; details: inhibitor 25 – 100 µM; 25 µM NAD+
[1] = test system: MDA-MB-231 PARG knockdown (PARG-KD) cells; test: Cellular PARylation, anti-PAR immunoblot; type: cell-based, human
Experimental: Fig. 6 Selective inhibition of PARG by xanthine derivative JA2131. a Clonogenic survival assays of PC3, MDA-MB-231, and MCF-7 cells treated with PARGi. Cells were treated with either DMSO or 10 µM JA2131 for 2 h, irradiated with 3 Gy (MDA-MB-231 and MCF-7), 7 Gy (PC3) IR and grown for ~2 weeks, then colonies were fixed with methanol and stained with crystal violet. The results of three independent experiments are shown. Error bars = the standard error of the mean (SEM). b dose-response of JA2131 in MDA-MB-231 cells with and without IR. Cells were treated with designated concentrations of JA2131 for 2 h and then either left untreated or exposed to 3 Gy IR and allowed to recover for 1 h before lysis. Total protein was immunoblotted with anti-PAR antibody (upper panel), stripped and reprobed with anti-PCNA as a loading control. c MDA-MB-231 cells with stable scrambled shRNA (WT) or stable PARG shRNA, knockdown (KD), were treated with 5 μM JA2131 for 2 h, lysed and then total lysates were immunoblotted for anti-PAR (upper panel) followed by anti-PARG (upper middle panel), anti-PARP1 (lower middle panel) and anti-actin (bottom panel) antibody. […] Stable cells with scramble shRNA (control) and shPARG (PARG-KD) cells were treated with an increasing concentration of JA2131 for growth inhibitory IC50 determination. The data was normalized against 100% survival at the lowest inhibitor concentration. Error bars show the percent coefficient of variation. Equivalent concentrations of DMSO were used as a negative control. e The cytotoxicity of JA2131 along with PDD, Veliparib and Doxorubicin against MRC-5 cells. Error bars show the percent coefficient of variation. f CETSA for in-cell JA2131 target engagement. Normalized anti-PARG western blot intensities of three independent experiments were fitted as above and the estimated aggregation temperature (Tagg) is shown in the tabulated insert. Source Data are provided as a Source Data file.
Using shRNA, next, we generated a stable MDA-MB-231 PARG knockdown (PARG-KD) cell-line (Supplementary Fig. 10). We compared PARGi JA2131-induced PARylation in PARG-KD and control cells. We reasoned that PARG-KD cells would show a reduced response to a selective PARGi as the stable PARG-KD cells would have to adopt a PARG-independent survival mechanism. MDA-MB-231 control cells and PARG-KD cells were treated with JA2131, then total cell lysates were subjected to immunoblotting with anti-PAR antibody, followed by immunodetection for anti-PARG, PARP1 and Actin antibody (Fig. 6c). […] Dose-response curves comparing control and PARG-KD cells further validate the selective action of JA2131 on control cells expressing PARG, but not on the PARG-KD cells (Supplementary Fig. 12).
PC3, MDA-MB-231 cells were maintained in RPMI 1640, MCF-7 cells in Eagle’s Minimum Essential Medium (EMEM), MRC-5 cells in Eagle’s Minimum Essential Medium and Hela and U2OS cells in Dulbecco’s modified Eagle’s high glucose medium (DMEM) supplemented with 10% (vol/vol) fetal bovine serum (FBS) and 1% antibiotic/antimycotic (Lonza) in a humidified incubator with 10% CO2. All cell lines were purchased from ATCC and regularly checked for mycoplasma and cell authentication. SUM 149PT cells were cultured in F-12 Hams (Gibco) supplemented with 5% fetal bovine serum, insulin, and hydrocortisone. […] Cells were fixed with methanol (100%), stained with crystal violet and analyzed using a GelCount instrument (Oxford Optronix Ltd). […]

[2] = Sulforhodamine B (SRB) cytotoxicity assay; details: human, PC3 cells, Viability; for viability at 72 h, 1.95 µM: log [concentration] μM 0.291; for viability at 72 h, 3.9 µM: log [concentration] μM 0.592; for viability at 72 h, 7.8 µM: log [concentration] μM 0.893; for viability at 72 h, 15.6 µM: log [concentration] μM 1.194; for viability at 72 h, 31.3 µM: log [concentration] μM 1.495; for viability at 72 h, 62.5 µM: log [concentration] μM 1.796; for viability at 72 h, 125 µM: log [concentration] μM 2.097; for viability at 72 h, 250 µM: log [concentration] μM 2.398; for viability at 72 h, 500 µM: log [concentration] μM 2.699; for viability at 72 h, 0.98 µM: log [concentration] μM -0.01; for viability at 72 h, 0.49 µM: log [concentration] μM -0.312; for viability at 72 h, 0.244 µM: log [concentration] μM -0.613
MDA-MB-231 cells = test: Clonogenic survival assay; type: cell-based, human; details: 10 µM JA2131 2 h; 3 Gy IR; ~2 weeks

Chain of hPARP1 (P09874 whole entry): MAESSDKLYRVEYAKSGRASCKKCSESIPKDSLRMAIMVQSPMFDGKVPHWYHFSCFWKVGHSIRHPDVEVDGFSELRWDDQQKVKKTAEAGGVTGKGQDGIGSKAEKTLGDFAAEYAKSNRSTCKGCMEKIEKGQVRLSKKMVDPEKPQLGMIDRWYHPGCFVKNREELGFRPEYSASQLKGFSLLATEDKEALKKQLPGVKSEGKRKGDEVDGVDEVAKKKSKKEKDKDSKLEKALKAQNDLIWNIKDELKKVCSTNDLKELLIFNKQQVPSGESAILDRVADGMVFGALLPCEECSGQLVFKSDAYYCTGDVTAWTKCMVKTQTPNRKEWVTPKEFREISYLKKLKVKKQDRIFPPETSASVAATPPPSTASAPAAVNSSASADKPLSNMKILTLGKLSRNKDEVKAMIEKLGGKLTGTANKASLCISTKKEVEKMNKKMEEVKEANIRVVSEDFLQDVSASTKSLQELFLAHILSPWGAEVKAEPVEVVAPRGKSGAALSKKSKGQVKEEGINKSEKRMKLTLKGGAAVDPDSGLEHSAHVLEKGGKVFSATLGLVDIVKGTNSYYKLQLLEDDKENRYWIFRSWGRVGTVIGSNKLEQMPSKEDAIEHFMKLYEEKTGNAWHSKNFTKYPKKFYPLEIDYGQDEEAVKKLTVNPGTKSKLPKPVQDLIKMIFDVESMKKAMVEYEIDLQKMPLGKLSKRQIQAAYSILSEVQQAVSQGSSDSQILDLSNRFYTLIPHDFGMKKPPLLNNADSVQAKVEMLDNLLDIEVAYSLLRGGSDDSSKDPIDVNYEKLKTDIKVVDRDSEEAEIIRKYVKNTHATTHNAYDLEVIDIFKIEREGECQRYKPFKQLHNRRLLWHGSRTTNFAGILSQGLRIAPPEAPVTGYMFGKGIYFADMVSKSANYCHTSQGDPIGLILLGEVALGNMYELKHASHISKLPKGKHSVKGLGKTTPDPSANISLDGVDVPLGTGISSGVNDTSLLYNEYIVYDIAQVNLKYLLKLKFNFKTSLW

For `Cn1c(=S)c2[nH]c(SCCN3CCOCC3)nc2n(C)c1=O` [JA2131], the “inhibition of PARP1 activation (PAR synthesis)” value (hPARP1) was “did not inhibit PARP1 activation up to 100 μM”, the “anti-PAR western blot band, Normalized” value ([1]; 5 μM JA2131 2 h, Ci-DMSO = 1) was 8.898 and the “anti-PAR western blot band, Intensity inversion” value ([1]; 5 μM JA2131 2 h, ImageJ) was 0.00723. For the same molecule, the “anti-PAR western blot band, Neg. substracted” value ([1]; 5 μM JA2131 2 h, ImageJ) was 0.001922, the “anti-PAR western blot band, mean int.” value ([1]; 5 μM JA2131 2 h, ImageJ) was 138.32 and the “PAR accumulation after treatment” value ([1]; 5 μM, 2 h) was “did not affect the level of PAR accumulation”. It also gave a viability at 72 h, 1.95 µM ([2]; +IR 7 Gy) of 104%, a viability at 72 h, 3.9 µM ([2]; +IR 7 Gy) of 99.5% and a viability at 72 h, 7.8 µM ([2]; +IR 7 Gy) of 103%. For the same molecule, the viability at 72 h, 15.6 µM ([2]; +IR 7 Gy) was 96.6%, the viability at 72 h, 31.3 µM ([2]; +IR 7 Gy) was 76.7% and the viability at 72 h, 62.5 µM ([2]; +IR 7 Gy) was 32.5%. The viability at 72 h, 125 µM ([2]; +IR 7 Gy) was 13.6%, the viability at 72 h, 250 µM ([2]; +IR 7 Gy) was 16.8% and the viability at 72 h, 500 µM ([2]; +IR 7 Gy) was 13%. The viability at 72 h, 0.98 µM ([2]; +IR 7 Gy) was 102%, the viability at 72 h, 0.49 µM ([2]; +IR 7 Gy) was 100% and the viability at 72 h, 0.244 µM ([2]; +IR 7 Gy) was 100%. For the same molecule, the viability at 72 h, 1.95 µM ([2]; without IR) was 97.5%, the viability at 72 h, 3.9 µM ([2]; without IR) was 97.3% and the viability at 72 h, 7.8 µM ([2]; without IR) was 94.1%. For the same molecule, the viability at 72 h, 15.6 µM ([2]; without IR) was 88.1%, the viability at 72 h, 31.3 µM ([2]; without IR) was 57.2% and the viability at 72 h, 62.5 µM ([2]; without IR) was 6.73%. It also gave a viability at 72 h, 125 µM ([2]; without IR) of 4.07%, a viability at 72 h, 250 µM ([2]; without IR) of 4.3% and a viability at 72 h, 500 µM ([2]; without IR) of 4.21%. The viability at 72 h, 0.98 µM ([2]; without IR) was 99.2%, the viability at 72 h, 0.49 µM ([2]; without IR) was 98.7% and the viability at 72 h, 0.244 µM ([2]; without IR) was 100%. For the same molecule, the “clonogenic survival (Exp-1 to Exp-4)” value (MDA-MB-231 cells) was 45.2569 and 36.8075 and 26.8698 and 36.3114.
